Results taken from patent US6239171A, “Tocotrienols and tocotrienol-like compounds and methods for their use” (Lipogenics, Inc., priority 1998, dated 2001).
Values joined by “and” are separate entries in the source; they are usually repeats but may differ in a detail not shown here. Equal entries are not always repeated.

Target: T1, HMG-CoA reductase (Homo sapiens, UniProt P04035)
T1 construct: hepatocytes isolated from livers of 8-week old female chickens; endogenous in cells; host or cells: primary chicken hepatocytes
T1 sequence (P04035 1-888): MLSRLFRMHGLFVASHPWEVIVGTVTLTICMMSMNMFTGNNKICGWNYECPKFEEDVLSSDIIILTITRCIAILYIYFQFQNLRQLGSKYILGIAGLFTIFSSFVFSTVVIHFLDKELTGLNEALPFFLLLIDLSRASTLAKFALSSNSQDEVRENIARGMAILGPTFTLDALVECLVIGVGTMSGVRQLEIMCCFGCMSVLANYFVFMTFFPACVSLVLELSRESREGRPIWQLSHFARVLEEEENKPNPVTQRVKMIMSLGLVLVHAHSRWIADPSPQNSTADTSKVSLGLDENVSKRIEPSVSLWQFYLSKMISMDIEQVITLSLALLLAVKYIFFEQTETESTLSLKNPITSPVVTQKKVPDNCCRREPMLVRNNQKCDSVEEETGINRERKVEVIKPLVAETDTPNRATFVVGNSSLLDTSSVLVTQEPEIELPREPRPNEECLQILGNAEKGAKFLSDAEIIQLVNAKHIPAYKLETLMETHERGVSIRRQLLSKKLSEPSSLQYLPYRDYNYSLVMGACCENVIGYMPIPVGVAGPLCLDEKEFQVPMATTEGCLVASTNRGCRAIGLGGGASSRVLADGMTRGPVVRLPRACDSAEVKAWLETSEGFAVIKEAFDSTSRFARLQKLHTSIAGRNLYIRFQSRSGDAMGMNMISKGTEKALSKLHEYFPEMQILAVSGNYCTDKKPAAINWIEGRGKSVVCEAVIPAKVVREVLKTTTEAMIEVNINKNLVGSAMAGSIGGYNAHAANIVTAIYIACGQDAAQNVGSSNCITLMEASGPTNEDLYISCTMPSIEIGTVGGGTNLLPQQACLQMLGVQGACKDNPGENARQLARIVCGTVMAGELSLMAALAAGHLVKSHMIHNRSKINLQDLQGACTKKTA
Experiment: HMG-CoA reductase activity in isolated chicken hepatocytes
Type: cell-based
Experimental: This study measured the effects of three tocotrienols isolated from rice bran on cholesterol-related enzyme activity in hepatocytes isolated from livers of 8-week old female chickens. The chickens were fed the chick mash diet for 8 weeks. They were then fasted for 40 hours and finally refed for 48 hours before sacrifice. The hepatocytes were then prepared following standard methods.
Each compound was isolated from TRF using the following protocol: A bond Elute amine column was equilibrated with 2 ml hexane. 10 mg of TRF (dissolved in 0.5 ml hexane) was bound to the amine column. The column was washed with 1 ml of hexane, then with 1 ml of 3% isopropanol in hexane. P-21 and P-25 were eluted off the column with 5% isopropanol in hexane. Then using 10% isopropanol in hexane, the impurity P-20 was eluted. α-tocotrienol was also tested.
We next measured the effects of various tocotrienols and tocotrienol-like compounds isolated from rice bran on the activity of HMG-CoA reductase. 20.0 g of stabilized rice bran was extracted with 200.0 ml of methanol to remove various UV absorbing impurities and tocotrienols (6.7 mg total). This step was repeated four times. The remaining residue was dried under vacuum in a desiccator and then heated at 180° C. for 2 hours under 30 psi pressure. Then the dried residue was extracted again with 200.0 ml methanol (3.4 mg). […]

## CC(C)=CCC/C(C)=C/CC/C(C)=C/CCC1CCc2cc(O)ccc2O1 (stereo not shown) [P25, 3,4-dihydro-2-(4,8,12-trimethyltrideca-3'(E),7'(E),11'-trienyl)-2H-1-benzopyran-6-ol]
  maximum reduction in activity of HMG-CoA reductase: 46.6% and 58.6%
